The inhibition is the percentage by which the read-out fell short of the control.

This note sets out measurements from patent EP4559908A1, “HETEROARYL DERIVATIVE COMPOUND AND USE THEREOF” (S2CBio Inc., priority 2022, dated 2024).

The target of the experiment is T1, human ANO6 (variant 5) (Homo sapiens, UniProt Q4KMQ2).
T1 construct: expressed in transfected cells; host or cells: Fischer rat thyroid (FRT) cells
T1 sequence (Q4KMQ2 1-931 isoform Q4KMQ2-2): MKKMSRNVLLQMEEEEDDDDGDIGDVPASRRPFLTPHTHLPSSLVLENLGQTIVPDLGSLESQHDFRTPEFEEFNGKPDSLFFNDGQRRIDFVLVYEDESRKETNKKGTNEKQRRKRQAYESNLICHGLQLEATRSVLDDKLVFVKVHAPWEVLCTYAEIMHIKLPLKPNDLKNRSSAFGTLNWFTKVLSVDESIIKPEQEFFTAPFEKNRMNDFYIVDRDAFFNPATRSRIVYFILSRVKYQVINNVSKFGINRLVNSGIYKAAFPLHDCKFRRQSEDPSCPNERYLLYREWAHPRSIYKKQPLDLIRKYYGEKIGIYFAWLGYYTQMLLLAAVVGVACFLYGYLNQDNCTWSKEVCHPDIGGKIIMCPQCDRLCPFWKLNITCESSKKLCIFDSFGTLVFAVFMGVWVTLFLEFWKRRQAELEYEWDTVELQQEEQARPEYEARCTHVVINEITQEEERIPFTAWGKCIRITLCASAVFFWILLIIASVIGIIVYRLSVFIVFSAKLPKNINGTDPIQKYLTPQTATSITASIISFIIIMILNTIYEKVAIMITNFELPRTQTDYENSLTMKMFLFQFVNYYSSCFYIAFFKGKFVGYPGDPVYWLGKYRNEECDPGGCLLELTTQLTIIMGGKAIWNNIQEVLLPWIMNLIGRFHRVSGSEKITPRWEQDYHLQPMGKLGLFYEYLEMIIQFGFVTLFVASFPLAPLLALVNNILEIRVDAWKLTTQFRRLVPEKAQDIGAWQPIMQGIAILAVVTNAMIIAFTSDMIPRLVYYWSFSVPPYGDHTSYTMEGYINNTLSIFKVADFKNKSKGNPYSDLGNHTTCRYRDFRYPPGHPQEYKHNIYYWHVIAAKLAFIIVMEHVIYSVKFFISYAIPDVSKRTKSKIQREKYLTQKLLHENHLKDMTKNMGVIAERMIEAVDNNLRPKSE
Put plainly: Lact C2 assay (measuring phosphatidylserine externalization scramblase function). Type of experiment: cell-based. The conditions noted are these: FRT cells expressing human ANO6 (variant 5), ionomycin 10 µM, Lact-C2-GFP fluorescence, average of three tests; for inhibition at 0.05 µM / inhibition at 1 µM / inhibition at 0.1 µM: FRT; for inhibition at 0.05 µM: read-out: % Inhibition 50 nM; for inhibition at 1 µM: compound 1 µM, read-out: % Inhibition 1 µM; for inhibition at 0.1 µM: compound 100 nM. The procedure, abridged:
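Cells were pretreated 10 min with compound (50 nM, 100 nM, 1 µM; 1% DMSO), then given 10 µM ionomycin for 10 min. Surface phosphatidylserine was stained with 500 nM Lact-C2-GFP (10 min, 37 °C), fixed and imaged. Inhibition was scaled between untreated (100%) and ionomycin-alone (0%) wells.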

Consider `FC(F)(F)c1cc2nc(-c3cccc(Nc4ncc(-c5cccnn5)cn4)c3)[nH]c2cc1Cl` [Example 294, N-(3-(6-chloro-5-(trifluoromethyl)-1H-benzo[d]imidazol-2-yl)phenyl)-5-(pyridazin-3-yl)pyrimidin-2-amine], for which the inhibition at 1 µM was over 60%. For the same compound, where the note is “compound 50 nM”, the inhibition at 0.05 µM is 30 to 60%.
As for `FC(F)(F)c1cc2[nH]c(-c3cccc(Nc4ccc(-c5cccnn5)cc4)c3)nc2cn1` [Example 79, N-(4-(pyridazin-3-yl)phenyl)-3-(6-(trifluoromethyl)-1H-imidazolo[4,5-c]pyridin-2-yl)aniline], under “compound 50 nM”, the inhibition at 0.05 µM is over 60%.
`Fc1ccc2nc(-c3cccc(Nc4ccc(-c5ccccn5)cn4)c3)[nH]c2c1` [Example 58, N-(3-(6-fluoro-1H-benzo[d]imidazol-2-yl)phenyl)-[2,3'-bipyridine]-6'-amine] showed an inhibition at 0.1 µM of over 60%. Also, the inhibition at 0.05 µM (compound 50 nM) was over 60%.
Take `c1ccc(-c2cnc(Nc3cccc(-c4nc5ccccc5[nH]4)c3)cn2)nc1` [Example 276, N-(3-(1H-benzo[d]imidazol-2-yl)phenyl)-5-(pyridin-2-yl)pyrazin-2-amine]: for the setting “compound 50 nM”, the inhibition at 0.05 µM was over 60%.
As for `c1ccc(COc2ccc3nc(-c4cccc(Nc5ccc(-c6cccnn6)cc5)c4)[nH]c3c2)cc1` [Example 222, 3-(6-(benzyloxy)-1H-benzo[d]imidazol-2-yl)-N-(4-(pyridazin-3-yl)phenyl)aniline], the inhibition at 1 µM is over 60%. Where the note is “compound 50 nM”, the inhibition at 0.05 µM was over 60%.
As for `CN1CCN(CCOc2ccc(-c3nc4ccc(C(F)(F)F)cc4[nH]3)cc2Nc2ccc(-c3cnccn3)cc2)CC1` [Example 175, 2-[2-(4-methylpiperazin-1-yl)ethoxy]-N-(4-pyrazin-2-ylphenyl)-5-[6-(trifluoromethyl)-1H-benzo[d]imidazol-2-yl]aniline], the inhibition at 1 µM was over 60%.
As to `FC(F)(F)c1ccc2nc(-c3cc(Nc4ccc(-c5cccnn5)cc4)ccn3)[nH]c2c1` [Example 263, N-(4-(pyridazin-3-yl)phenyl)-2-(6-(trifluoromethyl)-1H-benzo[d]imidazol-2-yl)pyridin-4-amine], the inhibition at 1 µM is 30 to 60%.
For `Fc1cc2nc(-c3cccc(Nc4ccc(-c5ccccn5)cn4)c3)[nH]c2cc1F` [Example 283, N-(3-(5,6-difluoro-1H-benzo[d]imidazol-2-yl)phenyl)-[2,3'-bipyridin] -6'-amine], the inhibition at 1 µM is over 60%. Moreover, the inhibition at 0.05 µM (compound 50 nM) was over 60%.
`Fc1ccc2nc(-c3cccc(Nc4ncc(-c5cccnn5)cn4)c3)[nH]c2c1` [Example 51, N-(3-(6-fluoro-1H-benzo[d]imidazol-2-yl)phenyl)-5-(pyridazin-3-yl)pyrimidin-2-amine]: the inhibition at 0.1 µM is over 60%. For the setting “compound 50 nM”, the “% Inhibition 50 nM” value is reported as “B (30 to 60% inhibition)”.
Consider `Fc1cc2nc(-c3cccc(Nc4cnc(-c5ccncn5)cn4)c3)[nH]c2cc1F` [Example 297, N-(3-(5,6-difluoro-1H-benzo[d]imidazol-2-yl)phenyl)-5-(pyrimidin-4-yl)pyrazin-2-amine], for which the inhibition at 1 µM is over 60%. The inhibition at 0.05 µM (compound 50 nM) was over 60%.
As to `CC(C)(C)c1ccc2nc(-c3cccc(Nc4ccc(-c5ccccc5)nn4)c3)[nH]c2c1` [Example 3, N-[3-(6-tert-butyl-1H-benzo[d]imidazol-2-yl)phenyl]-6-phenylpyridazin-3-amine], the inhibition at 0.1 µM is over 60% and the inhibition at 1 µM was over 60%. For the setting “compound 50 nM”, the inhibition at 0.05 µM is over 60%.
On to `Clc1cc2[nH]c(-c3cccc(Nc4cnc(-c5ccccn5)cn4)c3)nc2cn1` [Example 301, N-(3-(6-chloro-1H-imidazo[4,5-c]pyridin-2-yl)phenyl)-5-(pyridin-2-yl)pyrazin-2-amine], for which the inhibition at 1 µM was over 60%.
`c1cncc(-c2ccc(Nc3cccc(-c4nc5ccccc5[nH]4)c3)cc2)c1` [Example 31, N-[3-(1H-benzo[d]imidazol-2-yl)phenyl]-4-(pyridin-3-yl)aniline] returned an inhibition at 0.1 µM of over 60%. The inhibition at 0.05 µM (compound 50 nM) lay within 30 to 60%.
As to `Fc1ccc2nc(-c3cccc(Nc4ncc(-c5ncccn5)cn4)c3)[nH]c2c1` [Example 247, N-(3-(6-fluoro-1H-benzo[d]imidazol-2-yl)phenyl)-[2,5'-bipyrimidin]-2'-amine], the inhibition at 1 µM was in the range of 30 to 60%.
With `Cc1cc(Nc2cccc(-c3nc4ccccc4[nH]3)c2)ccc1-c1cccnn1` [Example 204, N-(3-(1H-benzo[d]imidazol-2-yl)phenyl)-3-methyl-4-(pyridazin-3-yl)aniline], the inhibition at 1 µM is over 60%.
In the case of `N#Cc1ccc2nc(-c3cccc(Nc4ccc(-c5cccnn5)cc4)c3)[nH]c2c1` [Example 231, 2-(3-((4-(pyridazin-3-yl)phenyl)amino)phenyl)-1H-benzo[d]imidazole-6-carbonitrile], the inhibition at 1 µM was over 60%.
For `c1cc(Nc2ccc(-c3ccncn3)cn2)cc(-c2nc3ccccc3[nH]2)c1` [Example 68, N-[3-(1H-benzo[d]imidazol-2-yl)phenyl]-5-(pyrimidin-4-yl)pyridin-2-amine], the inhibition at 0.1 µM is over 60%. Also, for the setting “compound 50 nM”, the inhibition at 0.05 µM was over 60%.
Consider `FC(F)(F)c1ccc2nc(-c3cccc(Nc4ccc(-c5ccncn5)cn4)c3)[nH]c2c1` [Example 88, 5-pyrimidin-4-yl-N-[3-[6-(trifluoromethyl)-1H-benzo[d]imidazol-2-yl]phenyl]pyridin-2-amine], for which the inhibition at 1 µM was over 60%. In addition, under “compound 50 nM”, the inhibition at 0.05 µM was over 60%.
For the compound `COc1ccc(-c2ccc(Nc3cccc(-c4nc5ccccc5[nH]4)c3)cc2)nn1` [Example 275, 3-(1H-benzo[d]imidazol-2-yl)-N-(4-(6-methoxypyridazin-3-yl)phenyl)aniline], the inhibition at 1 µM is over 60%.
For `c1cc(Nc2ccc(-c3cccnn3)cc2)cc(-c2nc3ncccc3[nH]2)c1` [Example 219, 3-(1H-imidazo[4,5-b]pyridin-2-yl)-N-(4-(pyridazin-3-yl)phenyl)aniline], the inhibition at 1 µM is over 60%.
`FC(F)(F)Oc1ccc2nc(-c3cccc(Nc4ccc(-c5cccnn5)cc4)c3)[nH]c2c1` [Example 230, N-(4-(pyridazin-3-yl)phenyl)-3-(6-(trifluoromethoxy)-1H-benzo[d]imidazol-2-yl)aniline]: the inhibition at 1 µM was over 60%. Further, the inhibition at 0.05 µM (compound 50 nM) was over 60%.
For `Fc1ccc(-c2ccc(Nc3cccc(-c4nc5ccccc5[nH]4)c3)cc2)nn1` [Example 265, 3-(1H-benzo[d]imidazol-2-yl)-N-(4-(6-fluoropyridazin-3-yl)phenyl)aniline], the inhibition at 0.05 µM (compound 50 nM) was over 60%.
For `Fc1cc2nc(-c3cccc(Nc4ccc(-c5ccncn5)cc4)c3)[nH]c2cc1F` [Example 95, 3-(5,6-difluoro-1H-benzo[d]imidazol-2-yl)-N-(4-pyrimidin-4-ylphenyl)aniline], the inhibition at 1 µM is over 60%. The inhibition at 0.05 µM (compound 50 nM) is over 60%.
As for `FC(F)Oc1ccc2nc(-c3cccc(Nc4cnc(-c5ccccn5)cn4)c3)[nH]c2c1` [Example 300, N-(3-(6-(difluoromethoxy)-1H-benzo[d]imidazol-2-yl)phenyl)-5-(pyridin-2-yl) pyrazin-2-amine], the inhibition at 1 µM was over 60%. In addition, under “compound 50 nM”, the inhibition at 0.05 µM was in the range of 30 to 60%.
`N#Cc1ccc(Nc2cccc(-c3nc4ccc(C(F)(F)F)cc4[nH]3)c2)nc1` [Example 314, 6-((3-(6-(trifluoromethyl)-1H-benzo[d]imidazol-2-yl)phenyl)amino)nicotinonitrile]: the inhibition at 1 µM was over 60%. The inhibition at 0.05 µM (compound 50 nM) is over 60%.
For `FC(F)(F)c1ccc2nc(-c3cccc(Nc4ncc(-c5cscn5)cn4)c3)[nH]c2c1` [Example 304, 5-(thiazol-4-yl)-N-(3-(6-(trifluoromethyl)-1H-benzo[d]imidazol-2-yl)phenyl)pyrimidin-2-amine], the inhibition at 1 µM is over 60%. In addition, under “compound 50 nM”, the inhibition at 0.05 µM lay in the range of 30 to 60%.
`COc1ccc2nc(-c3cccc(Nc4ncc(-c5cccnn5)cn4)c3)[nH]c2c1` [Example 108, N-[3-(6-methoxy-1H-benzo[d]imidazol-2-yl)phenyl]-5-pyridazin-3-yl-pyrimidin-2-amine]: the inhibition at 1 µM is 30 to 60%.
